Measured values from patent US7232690B1, “Method and device for detecting and isolating pharmacological compounds being contained in substance mixtures” (LTS Lohmann Therapie-Systeme AG, priority 1999, dated 2007).
Like-named read-outs stand apart in the source and are kept apart here.

What was measured:
Thrombin [1] = target: T1, Thrombin (Homo sapiens, UniProt P00734); conditions: thrombin inhibitor CRC 220 of Behringwerke; cited from earlier work
serine protease trypsin = test: Ultrafiltration target-binding test of non-equimolar amidinophenylalanine mixture with trypsin (Example 2); conditions: applied 6 8.4, 7 41.25, 10 2.5 μmol/l
Experimental: (§1) Incubation of the substance library and the inhibitor with thrombin took place at room temperature within 1 hour; solvent: 0.9% of NaCl in H2O. The separation of the protein-ligand complexes formed was accomplished by ultrafiltration (centrifugal). All filtration procedures and washes were carried out until dryness of the filters.
(§2) Filter: Microcon 10 (Amicon)
(§3) Centrifugation conditions: 9981×g, room temperature
(§4) Washing steps: 2×, each with 150 μl of 0.9% NaCl in H2O, 4° C.
(§5) Ultrafiltration and analysis of the filtrate were followed by washing steps and the liberation of the ligand (the active chemical substance) from the protein-ligand complex retained on the filter by treatment with 200 μl of water/methanol/TFA (49.5/49.5/1) at room temperature.
(§6) The blind sample (without thrombin) was treated analogously in all steps so that a comparison of the filtrates was possible. The filtrates obtained in all steps were dried by means of a speed-VAC concentrator, and later dissolved in the corresponding HPLC flow agent of defined amount applying ultrasound and agitation.
Identification of the ligands was accomplished by analytic HPLC: stationary phase Hypersil C 18 BDS, 3 μm, 150*0.3 mm, Fusica (LC Packings)—mobile phase: acetonitrile/water/TFA (35/65/0.01), isocratic, 5 μL/min, λ=[…].
The trypsin inhibitors of 3-amidinophenylalanine represented in the following by their structural formulae, were used as chemical substances, and the serine protease trypsin as target:
The experiments were performed as described in Example 1.

Thrombin [2] = target: T1, Thrombin; test: Thrombin inhibition constant (Ki); type: biochemical; conditions: read-out: Ki [μmol/l] Thrombin
Trypsin = target: T2, Trypsin (Bos taurus, UniProt P00760); test: Trypsin inhibition constant (Ki); type: biochemical; conditions: read-out: Ki [μmol/l] Trypsin
T2 sequence (P00760 24-246): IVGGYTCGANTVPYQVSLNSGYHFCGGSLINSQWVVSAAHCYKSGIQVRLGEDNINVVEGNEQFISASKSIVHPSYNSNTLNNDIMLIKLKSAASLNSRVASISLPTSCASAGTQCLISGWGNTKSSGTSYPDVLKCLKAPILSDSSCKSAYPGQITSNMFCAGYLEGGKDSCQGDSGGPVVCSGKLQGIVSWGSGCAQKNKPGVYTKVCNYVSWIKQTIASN

serine protease thrombin = serine protease thrombin (Homo sapiens, UniProt P00734); test: Ultrafiltration target-binding test of substance library with thrombin, HPLC of filtrates (Example 1); conditions: 10 μmol/l each substance, 5 μmol/l thrombin, 1 hour room temperature
Experimental: As a target, the serine protease thrombin was chosen.
The examined assays were of the following composition:
as §1, §2, §3, §4, §5, §6
Identification of the ligands was accomplished by analytic HPLC: stationary phase Hypersil C 18 BDS, 3 μm, 150*0.3 mm, Fusica (LC Packings)—mobile phase: acetonitrile/water/TFA (35/65/0.01), isocratic, 5 μL/min, λ=[…]. […]

1st Wash (serine protease trypsin; Sample 261, without trypsin) [µmol/L]	2nd Wash (serine protease trypsin; Sample 261, without trypsin) [µmol/L]	Filtrate (serine protease trypsin; Sample 261, without trypsin) [µmol/L]	Liberation (serine protease trypsin; Sample 261, without trypsin) [µmol/L]	1st Wash (serine protease trypsin; Sample 262, trypsin 50 μmol/l) [µmol/L]	2nd Wash (serine protease trypsin; Sample 262, trypsin 50 μmol/l) [µmol/L]	Filtrate (serine protease trypsin; Sample 262, trypsin 50 μmol/l) [µmol/L]	Liberation (serine protease trypsin; Sample 262, trypsin 50 μmol/l) [µmol/L]	Ki (Thrombin [2]) [µmol/L]	Ki (Trypsin) [µmol/L]	Binding to target thrombin (difference between main experiment and blind sample) (serine protease thrombin)	Compound	Ki (Thrombin [1]) [nM]
											COc1cc(C)c(S(=O)(=O)N[C@@H](CC(=O)O)C(=O)N[C@H](Cc2ccc(C(=N)N)cc2)C(=O)N2CCCCC2)c(C)c1C [CRC 220]	2.5
0.71	0.05	7.44	0.01	0.23	0.15	0.67	6.09	0.0021	0.067		CS(=O)(=O)N1CCN(C(=O)C(Cc2cccc(C(=N)N)c2)NS(=O)(=O)c2ccc3ccccc3c2)CC1 (stereo not shown) [Substance 6]	
0.02	0.0013	0.05	0.0011	0.0058	0.0012	0.02	0.53	0.36	0.02		CCOC(=O)C1CCN(C(=O)C(Cc2cccc(C(=N)N)c2)NS(=O)(=O)c2ccc3ccccc3c2)CC1 (stereo not shown) [Substance 10]	
										not an inhibitor	Cl.Clc1cccc(Cl)c1NC1=NCCN1 [clonidin-HCL]	
